Laboratory results taken from patent US11814376B2, “Hepatitis b core protein modulators” (Assembly Biosciences, Inc., priority 2015, dated 2023).

Tests used:
[1] = tested on: HBV viral load in AD38 cells; test: Viral load production in AD38 cells, quantitative PCR of the core sequence in supernatant; type: cell-based; details: 10 μM compound, 6 days at 37° C., supernatant qPCR, relative to DMSO control; for activity at 10 µM: Hepatitis B virus, 144 h, read-out: AD38 Viral Load (%) (VL with cmpd/VL in DMSO control) at 10 μM
AD38 cells = test: Viability of AD38 cells (Promega CellTiter-Glo); type: cell-based; details: 10 μM compound, 6 days, CellTiter-Glo luminescence normalized to DMSO control (100%)
Method in brief: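 After 6 days of compound exposure at 37° C (compound added as 10× solution in 10% DMSO; 50,000 cells/well, collagen-coated), medium was replaced with tetracycline-free DMEM/F12, 2% FBS, 1% DMSO. CellTiter-Glo luminescence was then recorded and normalized to DMSO-treated wells as 100% viability.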

Compound: O=C(NCc1cnc(-c2cnc(O)nc2)s1)c1ccc2c(c1)NC(=O)c1ccccc1S2(=O)=O [compound 1671, N-((2-(2-hydroxypyrimidin-5-yl)thiazol-5-yl)methyl)-11-oxo-10, 11-dihydrodibenzo [b, f] [1, 4] thiazepine-8-carboxamide 5,5-dioxide]
- activity at 10 µM [1]: 18.2%
- AD38 Viability Normalized Result (cmpd/DMSO %) at 10 μM (AD38 cells): 100%

Compound: COC(=O)[C@@H]1CCCN1CCCOc1ccc(-c2ncc(CNC(=O)c3ccc4c(c3)NC(=O)c3ccccc3S4(=O)=O)s2)cc1 [11106-A]
- activity at 10 µM [1]: 3.6%
- AD38 Viability Normalized Result (cmpd/DMSO %) at 10 μM (AD38 cells): 90%

Compound: O=C(NCc1cnc(-c2ccc(OCCCN3CCC3)cc2)s1)c1ccc2c(c1)NC(=O)c1ccccc1S2(=O)=O [compound 11142]
- AD38 Viral Load (%) (VL with cmpd/VL in DMSO control) at 10 μM [1]: 0.8%
- AD38 Viability Normalized Result (cmpd/DMSO %) at 10 μM (AD38 cells): 87%

Compound: O=C(NCc1cnc(-c2cc(F)c(O)c(F)c2)s1)c1ccc2c(c1)NC(=O)c1ccccc1O2 [compound 1701]
- activity at 10 µM [1]: 2.1%
- AD38 Viability Normalized Result (cmpd/DMSO %) at 10 μM (AD38 cells): 94%

Compound: COc1ccc(-c2ncc(CNC(=O)c3ccc4c(c3)NC(=O)c3ccccc3S4(=O)=O)s2)nc1 [1879-A]
- activity at 10 µM [1]: 2.5%
- AD38 Viability Normalized Result (cmpd/DMSO %) at 10 μM (AD38 cells): 121%

Compound: Cc1c(C(=O)NCc2cnc(-n3cccn3)s2)ccc2c1NC(=O)c1ccccc1S2(=O)=O [C38-02]
- activity at 10 µM [1]: 0.5%
- AD38 Viability Normalized Result (cmpd/DMSO %) at 10 μM (AD38 cells): 94%

Compound: O=C1Cc2cc(-c3ncc(CNC(=O)c4ccc5c(c4)NC(=O)c4ccccc4S5(=O)=O)s3)ccc2N1 [compound 1821]
- activity at 10 µM [1]: 0.5%
- AD38 Viability Normalized Result (cmpd/DMSO %) at 10 μM (AD38 cells): 102%

Compound: CN1CCC(COc2ccc(-c3ncc(CNC(=O)c4ccc5c(c4)NC(=O)c4ccccc4S5(=O)=O)s3)cc2)CC1.Cl [compound 11138, N-((2-(4-((1-methylpiperidin-4-yl)methoxy)phenyl)thiazol-5-yl)methyl)-11-oxo-10, 11-dihydrodibenzo [b, f] [1, 4] thiazepine-8-carboxamide 5,5-dioxide hydrochloride]
- activity at 10 µM [1]: 1%
- AD38 Viability Normalized Result (cmpd/DMSO %) at 10 μM (AD38 cells): 96%

Compound: N#Cc1ccc(-c2ncc(CNC(=O)c3ccc4c(c3)NC(=O)c3ccccc3S4(=O)=O)s2)c(F)c1 [compound 1814]
- activity at 10 µM [1]: 0.9%
- AD38 Viability Normalized Result (cmpd/DMSO %) at 10 μM (AD38 cells): 92%

Compound: O=C(NCc1cnc(C(F)(F)F)s1)c1ccc2c(c1)NC(=O)c1ccccc1O2 [compound 1629]
- activity at 10 µM [1]: 3.2%
- AD38 Viability Normalized Result (cmpd/DMSO %) at 10 μM (AD38 cells): 107%

Compound: O=C(NCc1cnc(-c2ccc3[nH]ncc3c2)s1)c1ccc2c(c1)NC(=O)c1ccccc1S2(=O)=O [compound 1805]
- activity at 10 µM [1]: 0.6%
- AD38 Viability Normalized Result (cmpd/DMSO %) at 10 μM (AD38 cells): 97%

Compound: O=C(NCc1cnc(-c2ccc3ncccc3c2)s1)c1ccc2c(c1)NC(=O)c1ccccc1S2(=O)=O [compound 1819]
- activity at 10 µM [1]: 0.5%
- AD38 Viability Normalized Result (cmpd/DMSO %) at 10 μM (AD38 cells): 118%

Compound: CC(C)(C)NC(=O)c1ccc(-c2ncc(CNC(=O)c3ccc4c(c3)NC(=O)c3ccccc3S4(=O)=O)s2)cc1 [compound 1947]
- activity at 10 µM [1]: 2.3%
- AD38 Viability Normalized Result (cmpd/DMSO %) at 10 μM (AD38 cells): 101%

Compound: Cc1c(C(=O)NCc2cnc(C(F)(F)F)s2)ccc2c1NC(=O)c1ccccc1S2(=O)=O [compound 1767]
- activity at 10 µM [1]: 0.5%
- AD38 Viability Normalized Result (cmpd/DMSO %) at 10 μM (AD38 cells): 94%

Compound: O=C(NCc1cnc(C(F)(F)F)s1)c1ccc2c(c1)NC(=O)c1ccccc1S2 [compound 1421]
- activity at 10 µM [1]: 1.3%
- AD38 Viability Normalized Result (cmpd/DMSO %) at 10 μM (AD38 cells): 104%

Compound: O=C(NCc1cnc(-c2ccc(O)cc2F)s1)c1ccc2c(c1)NC(=O)c1ccccc1O2 [compound 1704]
- activity at 10 µM [1]: 47.6%
- AD38 Viability Normalized Result (cmpd/DMSO %) at 10 μM (AD38 cells): 96%

Compound: CN1c2ccc(C(=O)NCc3cnc(-c4ccc(O)cc4)s3)cc2NC(=O)c2ccccc21 [compound 1732]
- activity at 10 µM [1]: 18.8%
- AD38 Viability Normalized Result (cmpd/DMSO %) at 10 μM (AD38 cells): 100%

Compound: O=C1Nc2c(ccc(C(=O)NCc3cnc(-n4cccn4)s3)c2Cl)S(=O)(=O)c2ccccc21 [C51-02]
- activity at 10 µM [1]: 0.2%
- AD38 Viability Normalized Result (cmpd/DMSO %) at 10 μM (AD38 cells): 98%

Compound: O=C(NCc1cnc(-n2ccnn2)s1)c1ccc2c(c1)NC(=O)c1ccccc1S2(=O)=O [compound 11047]
- activity at 10 µM [1]: 1.4%
- AD38 Viability Normalized Result (cmpd/DMSO %) at 10 μM (AD38 cells): 96%

Compound: CC1c2ccc(C(=O)NCc3cnc(-c4ccc(O)cc4)s3)cc2NC(=O)c2ccccc21 (centres unmarked) [compound 1754]
- activity at 10 µM [1]: 1.6%
- AD38 Viability Normalized Result (cmpd/DMSO %) at 10 μM (AD38 cells): 93%

Compound: O=C(NCc1cnc(-c2ccc(O)cc2)s1)c1ccc2c(c1)NC(=O)c1cc(Cl)ccc1S2 [compound 1760]
- activity at 10 µM [1]: 6.4%
- AD38 Viability Normalized Result (cmpd/DMSO %) at 10 μM (AD38 cells): 94%

Compound: O=C(NCc1cnc(-c2ccc(F)cn2)s1)c1ccc2c(c1)NC(=O)c1ccccc1S2(=O)=O [compound 11040]
- activity at 10 µM [1]: 1.9%
- AD38 Viability Normalized Result (cmpd/DMSO %) at 10 μM (AD38 cells): 104%

Compound: Cc1c(C(=O)NCc2cnc(-c3ccc(O)cc3)s2)ccc2c1NC(=O)c1ccccc1S2 [compound 1755]
- activity at 10 µM [1]: 0.4%
- AD38 Viability Normalized Result (cmpd/DMSO %) at 10 μM (AD38 cells): 93%

Compound: CNc1ncc(CNC(=O)c2ccc3c(c2)NC(=O)c2ccccc2S3)s1 [compound 1424]
- activity at 10 µM [1]: 0.5%
- AD38 Viability Normalized Result (cmpd/DMSO %) at 10 μM (AD38 cells): 97%

Compound: O=C(O)CNc1ncc(CNC(=O)c2ccc3c(c2)NC(=O)c2ccccc2S3)s1 [compound 1602, (5-((11-oxo-10, 11-dihydrodibenzo [b, f] [1, 4]thiazepine-8-carboxamido)methyl)thiazol-2-yl) glycine]
- activity at 10 µM [1]: 59.8%
- AD38 Viability Normalized Result (cmpd/DMSO %) at 10 μM (AD38 cells): 97%

Compound: N#Cc1ncc(CNC(=O)c2ccc3c(c2)NC(=O)c2ccccc2S3(=O)=O)s1 [compound 1628]
- activity at 10 µM [1]: 21.8%
- AD38 Viability Normalized Result (cmpd/DMSO %) at 10 μM (AD38 cells): 95%

Compound: Cl.O=C(NCc1cnc(-c2ccc(OC[C@H]3CCNC3)cc2)s1)c1ccc2c(c1)NC(=O)c1ccccc1S2(=O)=O [compound 11139, (S)-11-oxo-N-((2-(4-(pyrrolidin-3-ylmethoxy)phenyl)thiazol-5-yl)methyl)-10, 11-dihydrodibenzo [b, f] [1, 4] thiazepine-8-carboxamide 5,5-dioxide hydrochloride]
- activity at 10 µM [1]: 5.5%
- AD38 Viability Normalized Result (cmpd/DMSO %) at 10 μM (AD38 cells): 104%

Compound: O=C(NCc1cnc(-c2ccc3cnccc3c2)s1)c1ccc2c(c1)NC(=O)c1ccccc1O2 [compound 1832]
- activity at 10 µM [1]: 14.1%
- AD38 Viability Normalized Result (cmpd/DMSO %) at 10 μM (AD38 cells): 98%

Compound: O=C(NCc1cnc(-c2ccc(SCCCN3CCCCC3)cc2)s1)c1ccc2c(c1)NC(=O)c1ccccc1S2(=O)=O [compound 11065, 11-oxo-N-((2-(4-((3-(piperidin-1-yl)propyl)thio)phenyl)thiazol-5-yl)methyl)-10, 11-dihydrodibenzo [b, f] [1, 4] thiazepine-8-carboxamide 5,5-dioxide]
- activity at 10 µM [1]: 1.2%
- AD38 Viability Normalized Result (cmpd/DMSO %) at 10 μM (AD38 cells): 66%

Compound: O=C(NCc1cnc(-c2ccc(OCCCN3CCOCC3)cc2)s1)c1ccc2c(c1)NC(=O)c1ccccc1O2 [compound 11161, N-((2-(4-(3-morpholinopropoxy)phenyl)thiazol-5-yl)methyl)-11-oxo-10, 11-dihydrodibenzo [b, f] [1, 4] oxazepine-8-carboxamide]
- activity at 10 µM [1]: 1.7%
- AD38 Viability Normalized Result (cmpd/DMSO %) at 10 μM (AD38 cells): 104%

Compound: Cc1c(C(=O)NCc2cnc(-c3ccc(OCCCN(C)C)cc3)s2)ccc2c1NC(=O)c1ccccc1S2(=O)=O [C38-01]
- activity at 10 µM [1]: 1.3%
- AD38 Viability Normalized Result (cmpd/DMSO %) at 10 μM (AD38 cells): 99%

Compound: O=C(NCc1cnc(-c2ccc(O)c(Cl)c2)s1)c1ccc2c(c1)NC(=O)c1ccccc1S2(=O)=O [compound 1667]
- activity at 10 µM [1]: 0.5%
- AD38 Viability Normalized Result (cmpd/DMSO %) at 10 μM (AD38 cells): 93%

Compound: O=C(NCc1cnc(-n2cccn2)s1)c1ccc2c(c1)NC(=O)c1ccccc1S2(=O)=O [compound 1960]
- activity at 10 µM [1]: 0.8%
- AD38 Viability Normalized Result (cmpd/DMSO %) at 10 μM (AD38 cells): 106%

Compound: CC(C)N(C)CCCOc1ccc(-c2ncc(CNC(=O)c3ccc4c(c3)NC(=O)c3ccccc3S4(=O)=O)s2)cc1 [compound 11091]
- activity at 10 µM [1]: 1.3%
- AD38 Viability Normalized Result (cmpd/DMSO %) at 10 μM (AD38 cells): 89%

Compound: O=C(NCc1cnc(-c2cscn2)s1)c1ccc2c(c1)NC(=O)c1ccccc1S2(=O)=O [compound 11049]
- activity at 10 µM [1]: 0.8%
- AD38 Viability Normalized Result (cmpd/DMSO %) at 10 μM (AD38 cells): 89%

Compound: CS(=O)(=O)Nc1ccc(-c2ncc(CNC(=O)c3ccc4c(c3)NC(=O)c3ccccc3O4)s2)cc1 [compound 1863]
- activity at 10 µM [1]: 9.4%
- AD38 Viability Normalized Result (cmpd/DMSO %) at 10 μM (AD38 cells): 106%

Compound: O=C(NCc1cnc(-c2ccc(O)nc2)s1)c1ccc2c(c1)NC(=O)c1ccccc1O2 [compound 1706, N-((2-(6-hydroxypyridin-3-yl)thiazol-5-yl)methyl)-11-oxo-10, 11-dihydrodibenzo [b, f] [1, 4] oxazepine-8-carboxamide]
- activity at 10 µM [1]: 57.5%
- AD38 Viability Normalized Result (cmpd/DMSO %) at 10 μM (AD38 cells): 103%

Compound: O=C(NCc1cnc(-c2ccc(O)cn2)s1)c1ccc2c(c1)NC(=O)c1ccccc1S2(=O)=O [compound 1879, N-((2-(5-hydroxypyridin-2-yl)thiazol-5-yl)methyl)-11-oxo-10, 11-dihydrodibenzo [b, f] [1, 4] thiazepine-8-carboxamide 5,5-dioxide]
- activity at 10 µM [1]: 7.2%
- AD38 Viability Normalized Result (cmpd/DMSO %) at 10 μM (AD38 cells): 104%

Compound: CCN(CC)CCC(C)Oc1ccc(-c2ncc(CNC(=O)c3ccc4c(c3)NC(=O)c3ccccc3S4(=O)=O)s2)cc1 (centres unmarked) [compound 11101]
- activity at 10 µM [1]: 1.9%
- AD38 Viability Normalized Result (cmpd/DMSO %) at 10 μM (AD38 cells): 85%

Compound: Nc1ccc(-c2ncc(CNC(=O)c3ccc4c(c3)NC(=O)c3ccccc3S4(=O)=O)s2)nc1 [compound 1886, N-((2-(5-aminopyridin-2-yl)thiazol-5-yl)methyl)-11-oxo-10, 11-dihydrodibenzo [b, f] [1, 4] thiazepine-8-carboxamide 5,5-dioxide]
- activity at 10 µM [1]: 1.5%
- AD38 Viability Normalized Result (cmpd/DMSO %) at 10 μM (AD38 cells): 106%
